From US20250154197A1, “LIPOLYTIC PEPTIDES” (FUNDACIÓ HOSPITAL UNIVERSITARI VALL D'HEBRON - INSTITUT DE …, priority 2021, published 2025)
Where no end group is shown, it is not given here. [ ]: non-standard residue; d: D form. The star is where a group is joined. Palmitoyl = CCCCCCCCCCCCCCCC(=O)*; Propionyl = CCC(=O)*

Key:
[1] = tested on: human subcutaneoous mature adipocytes; assay: Lipolytic activity: glycerol release in human adipocytes (Lipolysis Assay kit); assay type: cell-based; settings: human subcutaneous mature adipocytes
[2] = tested on: 3T3-L1 mouse adipocytes; assay: Lipolytic activity: glycerol release in differentiated 3T3-L1 mouse adipocytes (12 h); assay type: cell-based; settings: 3T3-L1 mouse adipocytes, 12 h
Method: JCRB9014-A) from Tebu-Bio (Tebu-bio, Barcelona, Spain). Briefly, mouse adipocytes (3T3-L1 cells) were cultured in 48 well plates as described previously (Saez-Lopez et al., 2020). Adipocytes were differentiated using cell culture reagents purchased from Tebu-Bio and following the manufacturer's instructions. At day of differentiation cells were treated in duplicates with vehicle (DMSO), Caffeine (100 μg/ml), and each of the peptides at the specified doses in Table 6a below. At the end of the experiment (12 h), supernatants were collected and glycerol content was measured using a Glycerol Assay Kit (Sigma) following manufacturer's instructions.

Substance	Lipolysis Activity measured as Glycerol (μM) release in media ([1]; 100 μg/ml) [µM]	Lipolysis Activity measured as Glycerol (μM) release in media ([1]; 25 μg/ml) [µM]	Lipolysis Activity measured as Glycerol (μM) release in media ([1]; 50 μg/ml) [µM]	Lipolysis Activity measured as Glycerol (μM) release in media ([2]; 1 μg/ml) [µM]	Lipolysis Activity measured as Glycerol (μM) release in media ([2]; 10 μg/ml) [µM]	Lipolysis Activity measured as Glycerol (μM) release in media ([2]; 100 μg/ml) [µM]	Lipolysis Activity measured as Glycerol (μM) release in media ([1]; 75 μg/ml) [µM]
Ac-LN-LD-LP-LE-G-LL-LY (Ac-NDPEGLY) [Acetyl-NH-GP3DM-12, N-term CH3CONH, C-term COOH]	138.6						
Ac-NDLEGLY (Ac-[dN][dD][dL][dE]G[dL][dY]-OH; SMILES CC(=O)N[C@H](CC(N)=O)C(=O)N[C@H](CC(=O)O)C(=O)N[C@H](CC(C)C)C(=O)N[C@H](CCC(=O)O)C(=O)NCC(=O)N[C@H](CC(C)C)C(=O)N[C@H](Cc1ccc(O)cc1)C(=O)O) [GP3DM-25, N-term CH3CONH, C-term COOH]	121.6	134.2	104.4				
Ac-NDLEGLY-NH2 (Ac-[dN][dD][dL][dE]G[dL][dY]-NH2; SMILES CC(=O)N[C@H](CC(N)=O)C(=O)N[C@H](CC(=O)O)C(=O)N[C@H](CC(C)C)C(=O)N[C@H](CCC(=O)O)C(=O)NCC(=O)N[C@H](CC(C)C)C(=O)N[C@H](Cc1ccc(O)cc1)C(N)=O) [GP3DM-29, N-term CH3CONH, C-term CONH2]	131.9	123.8	72.4				
Ac-NDPEGLY (Ac-[dN][dD][dP][dE]G[dL][dY]-OH; SMILES CC(=O)N[C@H](CC(N)=O)C(=O)N[C@H](CC(=O)O)C(=O)N1CCC[C@@H]1C(=O)N[C@H](CCC(=O)O)C(=O)NCC(=O)N[C@H](CC(C)C)C(=O)N[C@H](Cc1ccc(O)cc1)C(=O)O) [Acetyl-NH-EDL67, N-term CH3CONH, C-term COOH]	74.2	66.2	121.0				
Ac-NDPEGLY-NH2 (Ac-[dN][dD][dP][dE]G[dL][dY]-NH2; SMILES CC(=O)N[C@H](CC(N)=O)C(=O)N[C@H](CC(=O)O)C(=O)N1CCC[C@@H]1C(=O)N[C@H](CCC(=O)O)C(=O)NCC(=O)N[C@H](CC(C)C)C(=O)N[C@H](Cc1ccc(O)cc1)C(N)=O) [GP3DM-27, N-term CH3CONH, C-term CONH2]	142.7	72.6	133.3				
Ac-TWDPEGVIFY-NH2 (Ac-[dT][dW][dD][dP][dE]G[dV][dI][dF][dY]-NH2; SMILES CC[C@@H](C)[C@@H](NC(=O)[C@H](NC(=O)CNC(=O)[C@@H](CCC(=O)O)NC(=O)[C@H]1CCCN1C(=O)[C@@H](CC(=O)O)NC(=O)[C@@H](Cc1c[nH]c2ccccc12)NC(=O)[C@H](NC(C)=O)[C@H](C)O)C(C)C)C(=O)N[C@H](Cc1ccccc1)C(=O)N[C@H](Cc1ccc(O)cc1)C(N)=O) [GP3D-AcNH2, N-term CH3CONH, C-term CONH2]				606	464	472	
CH3(CH2)14CONH-NDLEGLY (Palmitoyl-[dN][dD][dL][dE]G[dL][dY]-OH; SMILES CCCCCCCCCCCCCCCC(=O)N[C@H](CC(N)=O)C(=O)N[C@H](CC(=O)O)C(=O)N[C@H](CC(C)C)C(=O)N[C@H](CCC(=O)O)C(=O)NCC(=O)N[C@H](CC(C)C)C(=O)N[C@H](Cc1ccc(O)cc1)C(=O)O) [GP3DM-28, N-term CH3(CH2)14CONH, C-term COOH]	106.0	50.5	122.6				
DN-LD-LP-LE-G-LL-LY ([dN]DPEGLY) [GP3DM-13, N-term NH2, C-term COOH]	42.1		49.5				
DPEGVFY (H-[dD][dP][dE]G[dV][dF][dY]-OH; SMILES CC(C)[C@@H](NC(=O)CNC(=O)[C@@H](CCC(=O)O)NC(=O)[C@H]1CCCN1C(=O)[C@H](N)CC(=O)O)C(=O)N[C@H](Cc1ccccc1)C(=O)N[C@H](Cc1ccc(O)cc1)C(=O)O) [GP3D-7 I II VIII, N-term NH2, C-term COOH]				485	325	340	
EtCONH-NDLEGLY (Propionyl-[dN][dD][dL][dE]G[dL][dY]-OH; SMILES CCC(=O)N[C@H](CC(N)=O)C(=O)N[C@H](CC(=O)O)C(=O)N[C@H](CC(C)C)C(=O)N[C@H](CCC(=O)O)C(=O)NCC(=O)N[C@H](CC(C)C)C(=O)N[C@H](Cc1ccc(O)cc1)C(=O)O) [GP3DM-26, N-term CH3CH2CONH, C-term COOH]	149.6	98.4	140.0				
LN-DD-LP-LE-G-LL-LY (N[dD]PEGLY) [GP3DM-14, N-term NH2, C-term COOH]	52.8		53.1				
LN-LD-DP-LE-G-LL-LY (ND[dP]EGLY) [GP3DM-15, N-term NH2, C-term COOH]	47.2		42.0				
LN-LD-LP-DE-G-LL-LY (NDP[dE]GLY) [GP3DM-16, N-term NH2, C-term COOH]	44.1		41.5				
LN-LD-LP-LE-G-DL-LY (NDPEG[dL]Y) [GP3DM-17, N-term NH2, C-term COOH]	53.6		47.4				
LN-LD-LP-LE-G-LL-DY (NDPEGL[dY]) [GP3DM-18, N-term NH2, C-term COOH]	63.5		44.4				
NDEGLFY (H-[dN][dD][dE]G[dL][dF][dY]-OH; SMILES CC(C)C[C@@H](NC(=O)CNC(=O)[C@@H](CCC(=O)O)NC(=O)[C@@H](CC(=O)O)NC(=O)[C@H](N)CC(N)=O)C(=O)N[C@H](Cc1ccccc1)C(=O)N[C@H](Cc1ccc(O)cc1)C(=O)O) [GP3DM-19, N-term NH2, C-term COOH]	123.3	87.1	64.0				
NDEGLY [GP3DM-22] (H-[dN][dD][dE]G[dL][dY]-OH; SMILES CC(C)C[C@@H](NC(=O)CNC(=O)[C@@H](CCC(=O)O)NC(=O)[C@@H](CC(=O)O)NC(=O)[C@H](N)CC(N)=O)C(=O)N[C@H](Cc1ccc(O)cc1)C(=O)O) [N-term NH2, C-term COOH]	131.9	52.1	59.5				
NDEGLY [GP3DM-23] (H-[dN][dD][dE]G[dL][dY]-OH; SMILES CC(C)C[C@@H](NC(=O)CNC(=O)[C@@H](CCC(=O)O)NC(=O)[C@@H](CC(=O)O)NC(=O)[C@H](N)CC(N)=O)C(=O)N[C@H](Cc1ccc(O)cc1)C(=O)O) [N-term NH2, C-term COOH]	170.0	139.7	97.7				
NDEGLY [GP3DM-24] (H-[dN][dD][dE]G[dL][dY]-OH; SMILES CC(C)C[C@@H](NC(=O)CNC(=O)[C@@H](CCC(=O)O)NC(=O)[C@@H](CC(=O)O)NC(=O)[C@H](N)CC(N)=O)C(=O)N[C@H](Cc1ccc(O)cc1)C(=O)O) [N-term NH2, C-term COOH]	148.6	105.2	111.0				
NDLEGLY (H-[dN][dD][dL][dE]G[dL][dY]-OH; SMILES CC(C)C[C@@H](NC(=O)CNC(=O)[C@@H](CCC(=O)O)NC(=O)[C@@H](CC(C)C)NC(=O)[C@@H](CC(=O)O)NC(=O)[C@H](N)CC(N)=O)C(=O)N[C@H](Cc1ccc(O)cc1)C(=O)O) [GP3DM-21, N-term NH2, C-term COOH]	102.5	116.5	116.7				
NDPEGY (H-[dN][dD][dP][dE]G[dY]-OH; SMILES NC(=O)C[C@@H](N)C(=O)N[C@H](CC(=O)O)C(=O)N1CCC[C@@H]1C(=O)N[C@H](CCC(=O)O)C(=O)NCC(=O)N[C@H](Cc1ccc(O)cc1)C(=O)O) [GP3DM-20, N-term NH2, C-term COOH]	118.7	128.1	117.7				
WDPEGVF (H-[dW][dD][dP][dE]G[dV][dF]-OH; SMILES CC(C)[C@@H](NC(=O)CNC(=O)[C@@H](CCC(=O)O)NC(=O)[C@H]1CCCN1C(=O)[C@@H](CC(=O)O)NC(=O)[C@H](N)Cc1c[nH]c2ccccc12)C(=O)N[C@H](Cc1ccccc1)C(=O)O) [GP3D-7 I VIII X, N-term NH2, C-term COOH]	46.85	14.57	36.68				42.95
acetyl-hexapeptide-39 (Ac-SIYVAT-NH2) [Hexa-39, reference compound]	29.21						
